Experimental findings from patent US20240301409A1, “Chemically Modified Small Activating RNA” (RACTIGEN THERAPEUTICS, priority 2021, published 2024) are described below.

Data set [1] concerns the target T1, RNase A (Bos taurus, UniProt P61823).
T1 sequence (P61823 27-150): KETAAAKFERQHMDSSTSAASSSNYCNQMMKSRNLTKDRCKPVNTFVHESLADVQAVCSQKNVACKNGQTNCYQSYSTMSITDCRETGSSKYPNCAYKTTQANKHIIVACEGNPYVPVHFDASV

Data set [2] concerns Rag1-40 target sequence in the 3′ UTR of firefly luciferase, COS-1 cells.
Procedure: (§1) A 26 bp fragment comprising the target site of Rag1-40 was cloned in the antisense orientation into the 3′ UTR region of the firefly luciferase gene in a pmirGLO dual luciferase vector. Vector plasmids were co-transfected with the indicated saRNAs into COS-1 cells. Cells were lysed 48 hours after transfection, and the resulting lysates were assessed for luciferase activity. Data represent mean±SD of at least two independent experiments. Dashed line represents comparisons to blank control (top dashed line) and Rag1-40 (bottom dashed line). Values close to the top dashed line indicate no off-target effect.
(§2) A 26 bp fragment comprising the Rag1-40 target sequence was cloned in the antisense orientation into a multiple cloning site (MCS) of the 3′ untranslated region of firefly luciferase of the pmirGLO dual luciferase vector (Promega, Fitchburg, WI), to obtain pOff-Target plasmid. Following E. coli transformation and overnight incubation, plasmids for each construct were prepared by standard method. Each plasmid was transfected into COS-1 monkey kidney epithelial cells using Lipofectamine 3000 (Invitrogen, Carlsbad, CA). Subsequently, saRNA was transfected using RNAiMAX. After 24 hours of incubation, COS-1 cells were lysed with 1× lysis buffer, and luciferase activity was measured using dual luciferase reporter gene assay system (Promega, WI, USA) following manufacturer's instructions.
(§3) To assess the off-target effects of unmodified and modified saRNAs, a sequence complementary to the sense oligonucleotide strand of Rag1-40 was cloned into the 3′UTR region of the luciferase gene in a pmirGLO dual luciferase vector. The vector plasmid was co-transfected with the saRNA into COS-1 cells. Cells were lysed 48 hours after transfection and the resulting lysates were assessed for luciferase activity.
The test system is the same in data set [3]. Put plainly: Analysis of off-target effects (pOff-Target dual luciferase reporter in COS-1 cells). The note with it: lysed 48 hours after transfection, luciferase activity. A general note: In a reporter assay the amount or activity of a reporter protein is the signal.
Procedure: as §1, §2, §3

Where two headings read alike, the source gives them in different places. Oligonucleotides are written 5' to 3', each unit as a sugar letter and its base; * is a phosphorothioate linkage, no mark a phosphodiester; rarer units and linkages stand in square brackets, end groups in braces. Plain capitals give the bases only. r = 2'-OH (RNA); f = 2'-fluoro

Consider “Rag1-40-20: saRNA duplex: sense mCmCAACUCAUUCUCCAAG*U*C (SEQ ID NO 15); antisense fUACUfUGGAGAAfUGAGUfUGG*fC*A (SEQ ID NO 9) (sense CCAACUCAUUCUCCAAGUC; antisense UACUUGGAGAAUGAGUUGGCA; 2'-OMe, 2'-F, phosphorothioate modifications; modified_base (1)..(2) (1,2)=2′-O-methyl(2′-OMe); modified_base (17)..(19) (17,18,19)=phosphorothioate (PS) backbone modification; modified_base (1)..(20) (1,5,12,17,20)=2′-fluoro; modified_base (19)..(21) (19,20,21)=phosphorothioate (PS) backbone modification)”, for which, in data set [1], the “time to complete degradation” value was at most 24 h. For the same substance, the “off-target effect compared to unmodified Rag1-40, in words” value in data set [2] is given as “mitigated or similar off-target effects”. For “Rag1-40-21: saRNA duplex: sense mCmCAACUCAUUCUCCAAG*U*C (SEQ ID NO 15); antisense UACUfUGGAGAAfUGAGUfUGG*fC*A (SEQ ID NO 10) (sense CCAACUCAUUCUCCAAGUC; antisense UACUUGGAGAAUGAGUUGGCA; 2'-OMe, 2'-F, phosphorothioates; modified_base (1)..(2) (1,2)=2′-O-methyl(2′-OMe); modified_base (17)..(19) (17,18,19)=phosphorothioate (PS) backbone modification; modified_base (5)..(20) (5,12,17,20)=2′-fluoro; modified_base (19)..(21) (19,20,21)=phosphorothioate (PS) backbone modification)”, in data set [3], the “off-target effect compared to unmodified Rag1-40, in words” value was “mitigated or similar off-target effects”. “Rag1-40-22: saRNA duplex: sense mCmCAACUCAUUCUCCAAG*U*C (SEQ ID NO 15); antisense fU*A*fCfUfUGGAGAAfUGAGfUfUGG*fC*A (SEQ ID NO 11) (sense CCAACUCAUUCUCCAAGUC; antisense UACUUGGAGAAUGAGUUGGCA; 2'-OMe, 2'-F, phosphorothioate modifications; modified_base (1)..(2) (1,2)=2′-O-methyl(2′-OMe); modified_base (17)..(19) (17,18,19)=phosphorothioate (PS) backbone modification; modified_base (1)..(21) (1,2,3,19,20,21)=phosphorothioate (PS) backbone modification; modified_base (1)..(20) (1,3,4,5,12,16,17,20)=2′-fluoro)”: the “degradation of duplex at 96 hours” value in data set [1] is listed as “little or no signs of degradation”. Also, in data set [2], the “off-target effect compared to unmodified Rag1-40, in words” value is reported as “completely inhibited”. Take “Rag1-40-23: saRNA duplex: sense mCmCAACUCAUUCUCCAAG*U*C (SEQ ID NO 15); antisense U*A*fCfUfUGGAGAAfUGAGfUfUGG*fC*A (SEQ ID NO 12) (sense CCAACUCAUUCUCCAAGUC; antisense UACUUGGAGAAUGAGUUGGCA; 2'-OMe, 2'-F, phosphorothioate modifications; modified_base (1)..(2) (1,2)=2′-O-methyl(2′-OMe); modified_base (17)..(19) (17,18,19)=phosphorothioate (PS) backbone modification; modified_base (2)..(21) (2,3,19,20,21)=phosphorothioate (PS) backbone modification; modified_base (3)..(20) (3,4,5,12,16,17,20)=2′-fluoro)”: the “degradation of duplex at 96 hours” value in data set [1] is “little or no signs of degradation”. Further, the “off-target effect compared to unmodified Rag1-40, in words” value in data set [2] was “mitigated or similar off-target effects”.

For “Rag1-40-26: saRNA duplex: sense fCfCAACUCAUUCUCCAAG*U*C (SEQ ID NO 16); antisense fUACUfUGGAGAAfUGAGUfUGGfCA (SEQ ID NO 7) (sense fCfCrArArCrUrCrArUrUrCrUrCrCrArArG*rU*rC; antisense fUrArCrUfUrGrGrArGrArAfUrGrArGrUfUrGrGfCrA)”, the “time to complete degradation” value in data set [1] was at most 24 h. Also, in data set [2], the “off-target effect compared to unmodified Rag1-40, in words” value was “increased off-target effects”. Turning to “Rag1-40-28: saRNA duplex: sense fCfCAACUCAUUCUCCAAG*U*C (SEQ ID NO 16); antisense fUACUfUGGAGAAfUGAGUfUGG*fC*A (SEQ ID NO 9) (sense fCfCrArArCrUrCrArUrUrCrUrCrCrArArG*rU*rC; antisense fUrArCrUfUrGrGrArGrArAfUrGrArGrUfUrGrG*fC*rA)”, the “time to complete degradation” value in data set [1] is at most 24 h. The “off-target effect compared to unmodified Rag1-40, in words” value in data set [2] is “mitigated or similar off-target effects”.

With “Rag1-40-30: saRNA duplex: sense fCfCAACUCAUUCUCCAAG*U*C (SEQ ID NO 16); antisense fU*A*fCfUfUGGAGAAfUGAGfUfUGG*fC*A (SEQ ID NO 11) (sense fCfCrArArCrUrCrArUrUrCrUrCrCrArArG*rU*rC; antisense fU*rA*fCfUfUrGrGrArGrArAfUrGrArGfUfUrGrG*fC*rA)”, in data set [1], the “degradation of duplex at 96 hours” value is “little or no signs of degradation”. The “off-target effect compared to unmodified Rag1-40, in words” value in data set [2] was “mitigated or similar off-target effects”.
